Here are results for 16 compounds from patent US11680056B2, “MK2 inhibitors and uses thereof” (Xinthera, Inc., priority 2021, dated 2023).

The target of one test is p38a/PRAK (Homo sapiens (Human), UniProt Q16539). Briefly: p38a/PRAK biochemical assay: activation of PRAK by p38, FITC-HSP27 peptide phosphorylation (IMAP FP). The following applies: 10-point 1:3 dilution, top dose 300 μM; 60 pM active p38a, 1 nM inactive PRAK, 10 μM ATP, 2 h incubation; read-out: p38a/PRAK Enzyme pIC50 (converted). The procedure, abridged: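 GST-tagged MK2 (F46–H400) and PRAK (M1–Q471), expressed in E. coli, activated by p38 and phosphorylate FITC-HSP27 peptide over 2 h with compound; readout by IMAP fluorescence polarisation (ex 485/em 528 nm). Ten-point 1:3 dilutions, top dose 1 μM for MK2 and 300 μM for PRAK. IC50 after vehicle normalisation; selectivity = IC50(PRAK)/IC50(MK2).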

In another test the target is p38a/MK2 (Homo sapiens (Human), UniProt P49137+Q16539). Briefly: p38a/MK2 biochemical assay: activation of MK2 by p38, FITC-HSP27 peptide phosphorylation (IMAP FP). As to conditions: 10-point 1:3 dilution, 60 pM active p38a, 1 nM inactive MK2, 10 μM ATP, 2 h incubation.
The mark [1] stands for this setting: top dose 10 μM, read-out: p38a/MK2 (10 μM) Enzyme pIC50 (converted).
[2] abbreviates: top dose 1 μM, read-out: p38a/MK2 (1 μM) Enzyme pIC50 (converted).

Like-named read-outs stand apart in the source and are kept apart here.

Sequence of p38a/PRAK (Q16539 whole entry): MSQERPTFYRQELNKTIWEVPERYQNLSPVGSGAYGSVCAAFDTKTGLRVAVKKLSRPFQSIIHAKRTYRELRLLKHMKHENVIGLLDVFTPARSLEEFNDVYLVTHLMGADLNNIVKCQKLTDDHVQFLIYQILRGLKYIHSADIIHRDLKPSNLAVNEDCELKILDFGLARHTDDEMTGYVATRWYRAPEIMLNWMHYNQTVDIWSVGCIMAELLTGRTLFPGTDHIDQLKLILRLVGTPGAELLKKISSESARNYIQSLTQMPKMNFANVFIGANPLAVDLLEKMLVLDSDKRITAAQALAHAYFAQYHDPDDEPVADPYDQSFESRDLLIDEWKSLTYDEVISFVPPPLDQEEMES
Sequence of p38a/MK2 (P49137 46-400): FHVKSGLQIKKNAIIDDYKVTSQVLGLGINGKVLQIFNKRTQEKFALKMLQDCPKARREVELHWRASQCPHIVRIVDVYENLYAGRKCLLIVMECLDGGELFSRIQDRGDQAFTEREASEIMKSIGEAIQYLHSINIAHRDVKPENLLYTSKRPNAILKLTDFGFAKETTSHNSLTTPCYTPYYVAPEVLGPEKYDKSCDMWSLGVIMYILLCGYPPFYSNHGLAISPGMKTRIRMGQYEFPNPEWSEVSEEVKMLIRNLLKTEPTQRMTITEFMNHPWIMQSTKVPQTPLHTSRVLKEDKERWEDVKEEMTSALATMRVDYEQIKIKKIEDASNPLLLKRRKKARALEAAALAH
Sequence of p38a/MK2 (Q16539 whole entry): as the sequence (Q16539 whole entry) above

Consider `Cc1cnc(-c2cccc([C@H](O)CO)n2)cc1-n1c(C)cc(OCc2ncc(F)cc2F)c(Cl)c1=O` (atropisomer, axis not shown) [Example 16, 3-chloro-4-[(3,5-difluoropyridin-2-yl)methoxy]-2′-[6-(1,2-dihydroxyethyl)pyridin-2-yl]-5′,6-dimethyl-[1,4′-bipyridin]-2-one], for which the IC50 on p38a/PRAK was 15.8 µM. Further, the “p38a/MK2 (10 μM) Enzyme pIC50” value on p38a/MK2 (top dose 10 μM) is recorded as 7.4.
Regarding `Cc1cnc(COc2cc(C)n(-c3cc(-c4ccnc(C(C)(C)O)n4)ncc3C)c(=O)c2Cl)c(F)c1` (single isomer, unassigned) [Example 23B, rel-3-chloro-4-[(3-fluoro-5-methylpyridin-2-yl)methoxy]-2′-[2-(2-hydroxypropan-2-yl)pyrimidin-4-yl]-5′,6-dimethyl-[1,4′-bipyridin]-2-one], the IC50 is greater than 316 µM at p38a/PRAK and greater than 10 µM on p38a/MK2 (setting [1]).
Turning to `Cc1cnc(-c2ccc3c(n2)[C@H](O)CC3)cc1-n1c(C)cc(OCc2ncc(F)cc2F)c(Cl)c1=O` (single isomer, unassigned) [Example 18D], the IC50 on p38a/PRAK is 3.16 µM; on p38a/MK2 (setting [1]), 0.0794 µM.
As to `Cc1cnc(-c2ccnc(C3CC(O)C3)n2)cc1-n1c(C)cc(OCc2ncc(F)cc2F)c(Cl)c1=O` (single isomer, unassigned) [Example 26A, rel-3-chloro-4-((3,5-difluoropyridin-2-yl)methoxy)-2′-(2-(3-hydroxycyclobutyl)pyrimidin-4-yl)-5′,6-dimethyl-2H-[1,4′-bipyridin]-2-one], the IC50 at p38a/PRAK is 2 µM; at p38a/MK2 (setting [2]) it was 0.0126 µM.
Turning to `Cc1cnc(-c2ccnc([C@](C)(O)C3CC3)n2)cc1-n1c(C)cc(OCc2ncc(F)cc2F)c(Cl)c1=O` (single isomer, unassigned) [Example 6C, rel-3-chloro-2′-[2-(1-cyclopropyl-1-hydroxyethyl)pyrimidin-4-yl]-4-[(3,5-difluoropyridin-2-yl)methoxy]-5′,6-dimethyl-[1,4′-bipyridin]-2-one], the IC50 was greater than 316 µM on p38a/PRAK and 3.16 µM at p38a/MK2 (setting [1]).
`Cc1cc(COc2cc(C)n(-c3cc(-c4ccnc(C(C)(C)O)n4)ncc3C)c(=O)c2Cl)ncc1F` (single isomer, unassigned) [Example 22B, rel-3-chloro-4-[(5-fluoro-4-methylpyridin-2-yl)methoxy]-2′-[2-(2-hydroxypropan-2-yl)pyrimidin-4-yl]-5′,6-dimethyl-[1,4′-bipyridin]-2-one]: the IC50 at p38a/PRAK was greater than 316 µM; on p38a/MK2 (setting [1]), greater than 10 µM.
For the compound `Cc1cc(COc2cc(C)n(-c3cc(-c4ccnc(C(C)(C)O)n4)ncc3C)c(=O)c2Cl)ncc1F` (single isomer, unassigned) [Example 22A, rel-3-chloro-4-[(5-fluoro-4-methylpyridin-2-yl)methoxy]-2′-[2-(2-hydroxypropan-2-yl)pyrimidin-4-yl]-5′,6-dimethyl-[1,4′-bipyridin]-2-one], the IC50 on p38a/PRAK is 15.8 µM; at p38a/MK2 (setting [1]), 0.0316 µM.
For the compound `Cc1cnc(-n2ccc(C(C)(C)O)n2)cc1-n1c(C)cc(OCc2ncc(F)cc2Cl)c(Cl)c1=O` (single isomer, unassigned) [Example 47B, rel-3-chloro-4-[(3-chloro-5-fluoropyridin-2-yl)methoxy]-2′-[3-(2-hydroxypropan-2-yl)pyrazol-1-yl]-5′,6-dimethyl-[1,4′-bipyridin]-2-one], the IC50 was greater than 316 µM at p38a/PRAK and greater than 1 µM at p38a/MK2 (setting [2]).
The like results for `Cc1cnc(-c2cncc(C(C)(C)O)n2)cc1-n1c(C)cc(OCc2ncc(F)cc2F)c(Cl)c1=O` (single isomer, unassigned) [Example 51B, rel-3-chloro-4-[(3,5-difluoropyridin-2-yl)methoxy]-2′-[6-(2-hydroxypropan-2-yl)pyrazin-2-yl]-5′,6-dimethyl-[1,4′-bipyridin]-2-one] were, in that order, greater than 316 µM and greater than 1 µM.
With `Cc1cnc(-c2ccnc(C3(CO)CC3)n2)cc1-n1c(C)cc(OCc2ncc(F)cc2F)c(Cl)c1=O` (single isomer, unassigned) [Example 21A, rel-3-chloro-4-((3,5-difluoropyridin-2-yl)methoxy)-2′-(2-(1-(hydroxymethyl)cyclopropyl)pyrimidin-4-yl)-5′,6-dimethyl-2H-[1,4′-bipyridin]-2-one], the IC50 on p38a/PRAK was greater than 316 µM; on p38a/MK2 (setting [1]), greater than 10 µM.
Take `Cc1cnc(-c2ccc(F)c(C(C)(C)O)n2)cc1-n1c(C)cc(OCc2ncc(F)cc2F)c(Cl)c1=O` (single isomer, unassigned) [Example 24B, rel-3-chloro-4-[(3,5-difluoropyridin-2-yl)methoxy]-1-[5′-fluoro-6′-(2-hydroxypropan-2-yl)-5-methyl-[2,2′-bipyridin]-4-yl]-6-methylpyridin-2-one]: the IC50 was greater than 316 µM at p38a/PRAK and 1.58 µM on p38a/MK2 (setting [1]).
Take `Cc1cnc(-n2ccc(CC(C)(C)O)n2)cc1-n1c(C)cc(OCc2ncc(F)cc2F)c(Cl)c1=O` (single isomer, unassigned) [Example 46B, rel-3-chloro-4-[(3,5-difluoropyridin-2-yl)methoxy]-2′-[3-(2-hydroxy-2-methylpropyl)pyrazol-1-yl]-5′,6-dimethyl-[1,4′-bipyridin]-2-one]: the values for the IC50 at p38a/PRAK and on p38a/MK2 (setting [2]) were greater than 316 µM and greater than 1 µM, respectively.
`[2H]C([2H])(Oc1cc(C)n(-c2c(C)cnc(-c3ccnc(CC4(O)CC4)n3)c2F)c(=O)c1Cl)c1ncc(F)cc1F` (single isomer, unassigned) [Example 61A, rel-3-chloro-4-((3,5-difluoropyridin-2-yl)methoxy-d2)-3′-fluoro-2′-(2-((1-hydroxycyclopropyl)methyl)pyrimidin-4-yl)-5′,6-dimethyl-2H-[1,4′-bipyridin]-2-one]: the IC50 at p38a/PRAK is 158 µM; on p38a/MK2 (setting [2]) it was greater than 0.1 µM.
For `Cc1cnc(-c2ccnc(C(C)(C)C(F)F)n2)cc1-n1c(C)cc(OCc2ncc(F)cc2F)c(Cl)c1=O` (single isomer, unassigned) [Example 5B, rel-3-chloro-2′-[2-(1,1-difluoro-2-methylpropan-2-yl)pyrimidin-4-yl]-4-[(3,5-difluoropyridin-2-yl)methoxy]-5′,6-dimethyl-[1,4′-bipyridin]-2-one], the IC50 on p38a/PRAK is greater than 316 µM; at p38a/MK2 (setting [1]) it was 2 µM.
Consider `Cc1sc(-c2ccnc(C(C)(C)O)n2)cc1-n1c(C)cc(OCc2ncc(F)cc2F)c(Cl)c1=O` (single isomer, unassigned) [Example 33B, 3-chloro-4-[(3,5-difluoropyridin-2-yl)methoxy]-1-{5-[2-(2-hydroxypropan-2-yl)pyrimidin-4-yl]-2-methylthiophen-3-yl}-6-methylpyridin-2-one], for which the IC50 at p38a/PRAK was 50.1 µM. In addition, the “p38a/MK2 (10 μM) Enzyme pIC50” value on p38a/MK2 (top dose 10 μM) stood at 6.5.
As to `Cc1cnc(-c2cc(C3CC3)nc(C(C)(C)O)n2)cc1-n1c(C)cc(OCc2ncc(F)cc2F)c(Cl)c1=O` (atropisomer, axis not shown) [Example 10, 3-chloro-2′-[6-cyclopropyl-2-(2-hydroxypropan-2-yl)pyrimidin-4-yl]-4-[(3,5-difluoropyridin-2-yl)methoxy]-5′,6-dimethyl-[1,4′-bipyridin]-2-one], the IC50 on p38a/PRAK is 5.01 µM. Also, the “p38a/MK2 (10 μM) Enzyme pIC50” value on p38a/MK2 (top dose 10 μM) came out at 5.8.
